The source made the active and inactive calls. The calls are words filed in the database; no cut-off is given here.
Assays:
[1] = biological target: Dihydroorotate dehydrogenase (quinone), mitochondrial (Homo sapiens, UniProt Q02127); test: Inhibition of recombinant N-terminal His-tagged human DHODH (31 to 395 residues) expressed in Escherichia coli using DL-dihydroorotic acid as substrate and Q0 as coenzyme by DCIP based assay
MDA-MB-231 [2] = test: Cytotoxicity against human MDA-MB-231 cells assessed as reduction in cell viability incubated for 24 hrs by CellTiter-Glo luminescent assay; assay type: functional, cell-based
MDA-MB-468 [3] = test: Cytotoxicity against human MDA-MB-468 cells assessed as reduction in cell viability incubated for 24 hrs by CellTiter-Glo luminescent assay; assay type: functional, cell-based
MDA-MB-468 [4] = test: Inhibition of cell proliferation in human MDA-MB-468 cells at <=10 uM incubated for 4 days in presence of uridine by CellTiter-Glo luminescent assay; assay type: functional, cell-based; details: dose microM <=10, time 4.0 day
[5] = Toxicity in NOD/SCID mouse xenografted with patient-derived breast cancer cells assessed as effect on organ damage at 5 mg/kg, ip administered 5 times a week and measured after 16 days by hematoxylin and eosin staining based analysis; assay type: organism-based; details: in vivo, 384 h, time 16 day
MDA-MB-231 [6] = test: Inhibition of cell proliferation in human MDA-MB-231 cells at <=10 uM incubated for 4 days in presence of uridine by CellTiter-Glo luminescent assay; assay type: functional, cell-based; details: dose microM <=10, time 4.0 day
MDA-MB-468 [7] = test: Induction of apoptosis in human MDA-MB-468 cells assessed as increase in cleaved PARP1 level measured after 2 days by Western blot analysis; assay type: functional, cell-based; details: dose 0.5-2 µM, time 2.0 day
143B = test: Cytotoxicity against human 143B cells assessed as reduction in cell viability incubated for 24 hrs by CellTiter-Glo luminescent assay; assay type: functional, cell-based
MDA-MB-468 [8] = test: Induction of apoptosis in human MDA-MB-468 cells assessed as increase in cleaved caspase7 level measured after 2 days by Western blot analysis; assay type: functional, cell-based; details: dose 0.5-2 µM, time 2.0 day
LNCaP C4-2B = test: Cytotoxicity against human LNCaP C4-2B cells assessed as reduction in cell viability incubated for 24 hrs by CellTiter-Glo luminescent assay; assay type: functional, cell-based
MDA-MB-231 [9] = test: Induction of apoptosis in human MDA-MB-231 cells assessed as increase in cleaved PARP1 level measured after 2 days by Western blot analysis; assay type: functional, cell-based; details: dose 0.5-2 µM, time 2.0 day
MDA-MB-231 [10] = test: Induction of apoptosis in human MDA-MB-231 cells assessed as increase in apoptotic cells incubated for 2 days by annexin-V/FITC propidium iodide staining based flow cytometry analysis; assay type: functional, cell-based; details: time 2.0 day
[11] = Antitumor activity against patient-derived breast cancer cells xenografted in NOD/SCID mouse assessed as reduction in tumor volume at 5 mg/kg, ip administered 5 times a week and measured after 16 days relative to control; assay type: functional, Homo sapiens, Breast cancer cell line; parameters: scale not given: the % may be the effect or the level left; details: time 16 day
[12] = Antitumor activity against patient-derived breast cancer cells xenografted in NOD/SCID mouse assessed as tumor growth suppression at 5 mg/kg, ip administered 5 times a week and measured after 16 days relative to control; assay type: functional; details: Homo sapiens, Breast cancer cell line, 384 h, time 16 day
[13] = Toxicity in NOD/SCID mouse xenografted with patient-derived breast cancer cells assessed as effect on body weight loss at 5 mg/kg, ip administered 5 times a week and measured after 16 days; assay type: organism-based; details: in vivo, 384 h, time 16 day
MDA-MB-231 [14] = test: Induction of apoptosis in human MDA-MB-231 cells assessed as increase in cleaved caspase7 level measured after 2 days by Western blot analysis; assay type: functional, cell-based; details: dose 0.5-2 µM, time 2.0 day
HL-60 = test: Cytotoxicity against human HL-60 cells assessed as reduction in cell viability incubated for 24 hrs by CellTiter-Glo luminescent assay; assay type: functional, cell-based
MDA-MB-468 [15] = test: Induction of apoptosis in human MDA-MB-468 cells assessed as increase in apoptotic cells incubated for 2 days by annexin-V/FITC propidium iodide staining based flow cytometry analysis; assay type: functional, cell-based; details: time 2.0 day
[16] = Toxicity in NOD/SCID mouse xenografted with patient-derived breast cancer cells assessed as effect on body weight loss at 15 to 60 mg/kg, ip administered 5 times a week and measured after 21 days; assay type: organism-based; details: in vivo, 504 h, dose 15-60 mg/kg, time 21 day
[17] = Toxicity in NOD/SCID mouse xenografted with patient-derived breast cancer cells assessed as effect on organ damage at 15 to 60 mg/kg, ip administered 5 times a week and measured after 21 days by hematoxylin and eosin staining based analysis; assay type: organism-based; details: in vivo, 504 h, dose 15-60 mg/kg, time 21 day
Breast cancer cell line = test: Antitumor activity against patient-derived breast cancer cells xenografted in NOD/SCID mouse assessed as tumor growth suppression at 20 mg/kg, ip administered every 2 days and measured after 21 days; assay type: functional, organism-based; details: Homo sapiens, time 21.0 day
[18] = Toxicity in NOD/SCID mouse xenografted with patient-derived breast cancer cells assessed as body weight loss at 2.5 to 10 mg/kg, ip administered 5 times a week and measured after 16 days; assay type: organism-based; details: in vivo, 384 h, dose 2.5-10 mg/kg, time 16 day
[19] = Toxicity in NOD/SCID mouse xenografted with patient-derived breast cancer cells assessed as liver injury at 2.5 to 10 mg/kg, ip administered 5 times a week and measured after 16 days by hematoxylin and eosin staining based analysis; assay type: organism-based; details: in vivo, 384 h, dose 2.5-10 mg/kg, time 16 day

Dihydroorotate dehydrogenase (quinone), mitochondrial, sequence (Q02127 whole entry, the tested form may be a part): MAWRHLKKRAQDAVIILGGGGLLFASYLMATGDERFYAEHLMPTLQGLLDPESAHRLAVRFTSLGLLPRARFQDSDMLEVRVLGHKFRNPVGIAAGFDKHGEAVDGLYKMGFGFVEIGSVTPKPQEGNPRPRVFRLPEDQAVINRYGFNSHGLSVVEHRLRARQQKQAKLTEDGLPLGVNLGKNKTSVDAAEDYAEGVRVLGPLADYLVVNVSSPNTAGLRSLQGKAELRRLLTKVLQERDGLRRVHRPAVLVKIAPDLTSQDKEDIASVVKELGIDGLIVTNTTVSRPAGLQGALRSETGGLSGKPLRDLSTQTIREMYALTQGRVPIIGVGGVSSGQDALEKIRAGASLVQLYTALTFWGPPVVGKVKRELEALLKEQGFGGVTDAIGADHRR

Compound | IC50 [1] | IC50 (MDA-MB-231 [2]; Homo sapiens, MDA-MB-231, 24 h) | IC50 (MDA-MB-468 [3]; Homo sapiens, MDA-MB-468, 24 h) | also measured
C/C(=C\Cc1c(O)c(Cl)c(C)c(C=O)c1O)CC/C=C(\C)CC[C@@H]1OC1(C)C | 1.6 µM | 24 µM | 16 µM | 
CC(/C=C/[C@@]1(C)[C@H](C)CCC(=O)[C@@H]1C)=C\Cc1c(O)cc(C)c(C=O)c1O | 42 µM | > 60 µM | 38 µM | 
C=C1CC[C@H](O)C(C)(C)[C@@H]1CC/C(C)=C/Cc1c(O)c(Cl)c(C)c(C=O)c1O | 0.074 µM | 0.65 µM | 0.48 µM | inhibition (MDA-MB-468 [4]): inactive; Activity [5]: Non-Toxic; inhibition (MDA-MB-231 [6]): inactive; Activity (MDA-MB-468 [7]): Dose-Dependent Effect; Activity (143B): Dose-Dependent Effect; Activity (MDA-MB-468 [8]): Dose-Dependent Effect; Activity (LNCaP C4-2B): Dose-Dependent Effect; Activity (MDA-MB-231 [9]): Dose-Dependent Effect; Activity (MDA-MB-231 [10]): Dose-Dependent Effect; Activity [11]: 37.41%; inhibition in vivo at 5 mg/kg [12]: 51.7%; Activity [13]: Non-Toxic; Activity (MDA-MB-231 [14]): Dose-Dependent Effect; Activity (HL-60): Dose-Dependent Effect; Activity (MDA-MB-468 [15]): Dose-Dependent Effect
CC(=O)O[C@@H](CC/C(C)=C/CC/C(C)=C/Cc1c(O)c(Cl)c(C)c(C=O)c1O)C(C)(C)O | 30 µM | 7.4 µM | 6 µM | inhibition (MDA-MB-468 [4]): inactive; inhibition (MDA-MB-231 [6]): inactive; Activity (MDA-MB-231 [10]): Dose-Dependent Effect; Activity [16]: Non-Toxic; Activity [17]: Non-Toxic; Activity (MDA-MB-468 [15]): Dose-Dependent Effect
C=C1CCC(=O)C(C)(C)[C@@H]1CC/C(C)=C/Cc1c(O)c(Cl)c(C)c(C(=O)O)c1O | 15 µM | > 60 µM | > 60 µM | 
C/C(=C\Cc1c(O)c(Cl)c(C)c(C=O)c1O)CC/C=C(\C)[C@@H]1C[C@H](O)C(C)(C)O1 | 0.72 µM | 12 µM | 11 µM | 
C/C(=C\Cc1c(O)c(Cl)c(C)c(C=O)c1O)CC[C@H]1C(C)(C)C(=O)CC[C@]1(C)O | 34 µM | > 60 µM | > 60 µM | 
C/C(=C\Cc1c(O)cc(C)c(C=O)c1O)CC/C=C(\C)CC[C@H](O)C(C)(C)O | 5 µM | > 60 µM | 29 µM | 
C/C(=C\Cc1c(O)cc(C)c(C=O)c1O)CC/C=C(\C)CCC(=O)C(C)(C)O | 7.9 µM | > 60 µM | 57 µM | 
CC(/C=C/[C@@]1(C)[C@H](C)CCC(=O)[C@@H]1C)=C\Cc1c(O)c(Cl)c(C)c(C=O)c1O [ASCOCHLORIN] | 1.3 µM | 2.2 µM | 1.1 µM | 
C/C(=C\Cc1c(O)c(Cl)c(C)c(C=O)c1O)CC/C=C(\C)CC[C@H](O)C(C)(C)O | 3.7 µM | 23 µM | 20 µM | 
C/C(=C\C[C@@]1(C)[C@H](C)CCC(=O)[C@@H]1C)[C@@H](O)Cc1c(O)c(Cl)c(C)c(C=O)c1O | 4.7 µM | 41 µM | 15 µM | 
CC(/C=C/[C@@]1(C)[C@H](C)CC[C@@H](O)[C@@H]1C)=C\Cc1c(O)c(Cl)c(C)c(C=O)c1O | 13 µM | > 60 µM | > 60 µM | 
C=C(/C=C/[C@@]1(C)[C@H](C)CCC(=O)[C@@H]1C)[C@H](O)Cc1c(O)c(Cl)c(C)c(C=O)c1O | 3.9 µM | 45 µM | 34 µM | 
C/C(=C\Cc1c(O)c(Cl)c(C)c(C(=O)O)c1O)CC/C=C(\C)CC[C@H](O)C(C)(C)O | 20 µM | > 60 µM | 49 µM | 
O=c1[nH]cc(F)c(=O)[nH]1 [FLUOROURACIL] |  | 15 µM | > 20 µM | 
C/C(=C\Cc1c(O)c(Cl)c(C)c(C=O)c1O)CC/C(C)=C(\C)C(C)CCCO (stereo not given) | 32 µM | 12 µM | 7.5 µM | 
C/C(=C\Cc1c(O)c(Cl)c(C)c(C=O)c1O)CC/C=C(\C)[C@@H]1CC(=O)C(C)(C)O1 [ASCOFURANONE] | 5.4 µM | 5.2 µM | 7.1 µM | 
C/C(=C\Cc1c(O)c(Cl)c(C)c(C=O)c1O)[C@H](O)C[C@@]1(C)[C@H](C)CCC(=O)[C@@H]1C | 6.5 µM | 38 µM | 45 µM | 
C/C(=C\Cc1c(O)c(Cl)c(C)c(C=O)c1O)CC[C@H]1C(C)(C)C(=O)CC[C@@]1(C)O | 11 µM | > 60 µM | > 60 µM | 
C/C(O)=C(\C#N)C(=O)Nc1ccc(C(F)(F)F)cc1 [TERIFLUNOMIDE] |  | 14 µM | > 20 µM | inhibition (Breast cancer cell line): Active
Cc1c(Cl)c2c(c(O)c1C=O)C[C@H]([C@@](C)(O)/C=C/[C@@]1(C)[C@H](C)CCC(=O)[C@@H]1C)O2 | > 60 µM | 25 µM | 26 µM | 
C/C(=C\Cc1c(O)c(Cl)c(C)c(C=O)c1O)CC/C=C(\C)CCC(=O)C(C)(C)O | 9.3 µM | > 60 µM | > 60 µM | 
C/C(=C\Cc1c(O)cc(C)c(C=O)c1O)CC[C@@]1(C)[C@H](C)CCC(=O)[C@@H]1C [ILICICOLIN F] | 11 µM | 26 µM | 27 µM | 
Cc1c(Cl)c(O)c(C[C@@H]2[C@@]3(C)CC[C@H](O)C(C)(C)[C@@H]3CC[C@@]2(C)O)c(O)c1C=O | 31 µM | > 60 µM | > 60 µM | 
Cc1c(-c2ccc(-c3ccccc3F)cc2)nc2ccc(F)cc2c1C(=O)O [BREQUINAR] |  |  |  | Activity [18]: Toxic; Activity [19]: Toxic; IC50 (MDA-MB-231 [2]; mda-mb-231): 0.31 µM; IC50 (MDA-MB-468 [3]; mda-mb-468): 0.082 µM
C=C(C)[C@@H](O)CC/C(C)=C/CC/C(C)=C/Cc1c(O)c(Cl)c(C)c(C=O)c1O | 0.39 µM | 3.3 µM | 1.7 µM | 
C/C(=C\Cc1c(O)c(Cl)c(C)c(C=O)c1O)CC[C@@]1(C)[C@H](C)CCC(=O)[C@@H]1C [ILICICOLIN C] | 1.9 µM | 34 µM | 13 µM | 
